Results as given in patent US12410133B2, “Crystalline (r)-5-carbamoylpyridin-3-yl-2-methyl-4-(3-(trifluoromethoxy)benzyl)piperazine-1-carboxylate, compositions and methods of use thereof” (Celgene Corporation, priority 2018, dated 2025).
Values after ≈ are worked out from the molar mass of the structure shown. Marks after values point to notes of the source that are not given here.

Columns and labels:
Assay type in all cases: physicochemical
[1] = 2-hrs equilibrium solubility in FaSSIF and FeSSIF (version 2); conditions: thermodynamic from solid
Protocol: (§1) A summary of baseline solid state characterization results of crystalline (R)-5-carbamoylpyridin-3-yl-2-methyl-4-(3-(trifluoromethoxy)benzyl)piperazine-1-carboxylate Form A, including pKa, partition coefficient (log D7.4) measurement and 2-hrs equilibrium solubility in FaSSIF and FeSSIF (version 2) are provided herein. […] Log D7.4 was measured with the solvent system of pH 7.4 phosphate buffer and n-octanol by shake-flask method. Meanwhile, 2-hrs equilibrium solubility of (R)-5-carbamoylpyridin-3-yl-2-methyl-4-(3-(trifluoromethoxy)benzyl)piperazine-1-carboxylate in FaSSIF and FeSSIF (version 2) was measured to be 0.12 and 0.080 mg/mL.

[2] = Log D7.4 by shake-flask method (pH 7.4 phosphate buffer and n-octanol); conditions: n-octanol/pH 7.4 phosphate buffer
Protocol: as §1

[3] = Accelerated solid-state stability study of Form A
Protocol: Solid-state stability evaluation (accelerated conditions) was performed on Form A under conditions of 25° C./60% RH and 40° C./75% RH. The detailed procedure utilized for stability evaluation is listed below:
1) weigh approximately 30 mg of Form A sample into each 3-mL vial;
2) cover the vial with Parafilm® and poke 15 holes on the Parafilm® with a needle;
3) put the vial in a stability chamber of 25° C./60% RH or 40° C./75% RH; and
4) sample for XRPD, TGA, DSC, HPLC purity and assay tests after 2, 4 and 6 weeks and 3 months.

[4] = Interconversion study: competitive slurry of Form A and B; conditions: from RT to 50° C.
Protocol: An interconversion study of crystal forms was performed. To understand the thermodynamic stability relationship between Form A and B, competitive slurry experiments were performed at RT and 50° C. in water and toluene. Prior to the study, Form A was used to saturate the corresponding solvent before it was filtered to obtain a near-saturated solution. Equal amounts of Form A and B samples were weighed and then mixed with the prepared near-saturated solution to form a new suspension, which was stirred magnetically (˜1000 rpm) at RT and 50° C.

Q: Which results are given for C[C@@H]1CN(Cc2cccc(OC(F)(F)F)c2)CCN1C(=O)Oc1cncc(C(N)=O)c1 [Form A, (R)-5-carbamoylpyridin-3-yl-2-methyl-4-(3-(trifluoromethoxy)benzyl)piperazine-1-carboxylate]?
A: solubility thermodynamic at 2 h ([1]; FaSSIF (version 2), fassif): 120 µg/mL (≈ 274 µM); solubility thermodynamic at 2 h ([1]; FeSSIF (version 2), fessif): 80 µg/mL (≈ 182 µM); logD [2]: 3.76; API (RRT 1.00) ([3]; 2 weeks, 25° C./60% RH): 99.84 % Area; Assay vs. 5° C. control ([3]; 2 weeks, 25° C./60% RH): 101.2%; Crystal form ([3]; 2 weeks, 25° C./60% RH): Form A; HPLC Purity ([3]; 2 weeks, 25° C./60% RH): 99.84 area %; Imp.1 (RRT 0.81) ([3]; 2 weeks, 25° C./60% RH): 0.07 % Area; Imp.2 (RRT 1.04) ([3]; 2 weeks, 25° C./60% RH): — (—: <0.05.); Imp.3 (RRT 1.74) ([3]; 2 weeks, 25° C./60% RH): 0.09 % Area; API (RRT 1.00) ([3]; 2 weeks, 40° C./75% RH): 99.78 % Area; Assay vs. 5° C. control ([3]; 2 weeks, 40° C./75% RH): 98.1%; Crystal form ([3]; 2 weeks, 40° C./75% RH): Form A; HPLC Purity ([3]; 2 weeks, 40° C./75% RH): 99.78 area %; Imp.1 (RRT 0.81) ([3]; 2 weeks, 40° C./75% RH): 0.08 % Area; Imp.2 (RRT 1.04) ([3]; 2 weeks, 40° C./75% RH): 0.07 % Area; Imp.3 (RRT 1.74) ([3]; 2 weeks, 40° C./75% RH): 0.07 % Area; API (RRT 1.00) ([3]; 3 months, 25° C./60% RH): 99.86 % Area; Assay vs. 5° C. control ([3]; 3 months, 25° C./60% RH): 97.3%; Chiral Purity ([3]; 3 months, 25° C./60% RH): 100; Crystal form ([3]; 3 months, 25° C./60% RH): Form A; HPLC Purity ([3]; 3 months, 25° C./60% RH): 99.86 area %; Imp.1 (RRT 0.81) ([3]; 3 months, 25° C./60% RH): 0.09 % Area; Imp.3 (RRT 1.74) ([3]; 3 months, 25° C./60% RH): 0.05 % Area; API (RRT 1.00) ([3]; 3 months, 40° C./75% RH): 99.86 % Area; Assay vs. 5° C. control ([3]; 3 months, 40° C./75% RH): 96.9%; Chiral Purity ([3]; 3 months, 40° C./75% RH): 100; Crystal form ([3]; 3 months, 40° C./75% RH): Form A; HPLC Purity ([3]; 3 months, 40° C./75% RH): 99.86 area %; Imp.1 (RRT 0.81) ([3]; 3 months, 40° C./75% RH): 0.09 % Area; Imp.3 (RRT 1.74) ([3]; 3 months, 40° C./75% RH): 0.05 % Area; API (RRT 1.00) ([3]; 4 weeks, 25° C./60% RH): 99.86 % Area; Assay vs. 5° C. control ([3]; 4 weeks, 25° C./60% RH): 101.4%; Crystal form ([3]; 4 weeks, 25° C./60% RH): Form A; HPLC Purity ([3]; 4 weeks, 25° C./60% RH): 99.86 area %; Imp.1 (RRT 0.81) ([3]; 4 weeks, 25° C./60% RH): 0.07 % Area; Imp.2 (RRT 1.04) ([3]; 4 weeks, 25° C./60% RH): — (—: <0.05.); Imp.3 (RRT 1.74) ([3]; 4 weeks, 25° C./60% RH): 0.07 % Area; API (RRT 1.00) ([3]; 4 weeks, 40° C./75% RH): 99.86 % Area; Assay vs. 5° C. control ([3]; 4 weeks, 40° C./75% RH): 101.3%; Crystal form ([3]; 4 weeks, 40° C./75% RH): Form A; HPLC Purity ([3]; 4 weeks, 40° C./75% RH): 99.86 area %; Imp.1 (RRT 0.81) ([3]; 4 weeks, 40° C./75% RH): 0.07 % Area; Imp.2 (RRT 1.04) ([3]; 4 weeks, 40° C./75% RH): — (—: <0.05.); Imp.3 (RRT 1.74) ([3]; 4 weeks, 40° C./75% RH): 0.07 % Area; API (RRT 1.00) ([3]; 6 weeks, 25° C./60% RH): 99.86 % Area; Assay vs. 5° C. control ([3]; 6 weeks, 25° C./60% RH): 99.7%; Crystal form ([3]; 6 weeks, 25° C./60% RH): Form A; HPLC Purity ([3]; 6 weeks, 25° C./60% RH): 99.86 area %; Imp.1 (RRT 0.81) ([3]; 6 weeks, 25° C./60% RH): 0.07 % Area; Imp.2 (RRT 1.04) ([3]; 6 weeks, 25° C./60% RH): — (—: <0.05.); Imp.3 (RRT 1.74) ([3]; 6 weeks, 25° C./60% RH): 0.07 % Area; API (RRT 1.00) ([3]; 6 weeks, 40° C./75% RH): 99.86 % Area; Assay vs. 5° C. control ([3]; 6 weeks, 40° C./75% RH): 99.2%; Crystal form ([3]; 6 weeks, 40° C./75% RH): Form A; HPLC Purity ([3]; 6 weeks, 40° C./75% RH): 99.86 area %; Imp.1 (RRT 0.81) ([3]; 6 weeks, 40° C./75% RH): 0.07 % Area; Imp.2 (RRT 1.04) ([3]; 6 weeks, 40° C./75% RH): — (—: <0.05.); Imp.3 (RRT 1.74) ([3]; 6 weeks, 40° C./75% RH): 0.07 % Area; Physical and chemical stability under accelerated conditions ([3]; 25° C./60% RH and 40° C./75% RH for 3 months): good physical and chemical stability; API (RRT 1.00) ([3]; Initial): 99.86 % Area; Crystal form ([3]; Initial): Form A; HPLC Purity ([3]; Initial): 99.86 area %; Imp.1 (RRT 0.81) ([3]; Initial): 0.09 % Area; Imp.2 (RRT 1.04) ([3]; Initial): — (—: <0.05.); Imp.3 (RRT 1.74) ([3]; Initial): 0.05 % Area; Chiral Purity ([3]; Initial, starting material after stored at −20° C. for about 3 months): 100*; Form change or HPLC purity decrease ([3]; after 3 months at both conditions (25° C./60% RH and 40° C./75% RH)): no significant form change or HPLC purity decrease was observed; Thermodynamic stability relationship between Form A and B [4]: thermodynamically more stable than Form B
